One block for each compound: values may come before it.
What was measured:
[1] = tested on: Tenebrio molitor L; details: cited from earlier work
[2] = tested on: larvae of Helicoverpa zea; details: cited from earlier work
[3] = tested on: Plutella xylostella L larvae; details: cited from earlier work
[4] = Stability of crystalline hydrate forms of compound of formula I; assay type: physicochemical
Source text: As pointed out above, a further aspect of the present invention relates to the hydrate B of the compound of formula I. Form B is a non-stoichiometric hydrate of the compound of formula I. The typical water content is in the range from 7.5 to 9 wt % and in particular about 8.5 wt %, i.e. 8.5±0.2 wt %. The water content can be determined by thermo-gravimetric analysis (TGA).

Structure (SMILES): CC(=O)OC[C@@]1(C)[C@@H]2C[C@H](OC(C)=O)[C@@]3(C)Oc4cc(-c5cccnc5)oc(=O)c4[C@H](O)[C@@H]3[C@@]2(C)CC[C@@H]1OC(C)=O [Pyripyropene A]
insecticidal activity [1]: insecticidal activity
insecticidal activity [2]: insecticidal activity
insecticidal activity [3]: insecticidal activity

Structure (SMILES): C[C@]1(COC(=O)C2CC2)[C@@H]2C[C@H](O)[C@@]3(C)Oc4cc(-c5cccnc5)oc(=O)c4[C@H](O)[C@@H]3[C@@]2(C)CC[C@@H]1OC(=O)C1CC1 [Form C]
stability of the hydrate form ([4]; ambient conditions): stable at ambient conditions over weeks and month

conversion of the hydrate form ([4]; dried at elevated temperatures, e.g. >50 °C): slowly converts into amorphous material
stability of the hydrate form ([4]; room temperature, in contact with aqueous solvent or water or at high degrees of humidity, e.g. 90%): stable
conversion of the hydrate form ([4]; when the mother liquor is removed or humidity is reduced): slowly converts into form C
Structure (SMILES): C[C@]1(COC(=O)C2CC2)[C@@H]2C[C@H](O)[C@@]3(C)Oc4cc(-c5cccnc5)oc(=O)c4[C@H](O)[C@@H]3[C@@]2(C)CC[C@@H]1OC(=O)C1CC1 [Form B]

Reference: patent publication US9888689B2, “Compositions containing a pyripyropene insecticide and an adjuvant” (BASF SE, priority 2010, dated 2018)
